Reference: the SangsterLogP compilation

How the values were obtained:
[1] = method code G-GLC, from DOI: 10.1021/je00036a027
[2] = method code SF-HPLC, from DOI: 10.1002/ps.2780310207
[3] = not given; remark: listed apart in the source
[4] = not given; remark: listed apart in the source
[5] = method code SF-AS, from DOI: 10.1248/cpb.39.458, PMID: 1829027; conditions: pH 7.0
[6] = not given; remark: listed apart in the source
[7] = not given; remark: listed apart in the source
[8] = method code SF, from DOI: 10.1021/jm061062o.s001, PMID: 17326614; conditions: pH 7.4
[9] = method code SF-AS, from DOI: 10.1023/a:1016392123137, PMID: 24272811; conditions: pH 9.0
[10] = method code SF-GLC, from DOI: 10.1016/s0021-9673(01)83612-8; conditions: pH 13.0
[11] = from Sparatore, F.; Grieco, C.; Silipo, C.; Vittoria, A. (1979). Use of regression analysis to correlate auxin activity with chemical physical and structural properties of benzotriazole derivatives. III. …; conditions: pH 5.6
[12] = not given; remark: listed apart in the source
[13] = not given; remark: listed apart in the source

Structure (SMILES): Clc1cc(Cl)c(-c2ccccc2)cc1Cl
- logP [1]: 5.51

Structure (SMILES): Clc1cccc(Cl)c1-c1ccccc1
- logP [1]: 4.93

Structure (SMILES): Clc1ccc(C2(Cn3cncn3)CC2)cc1
- logP [2]: 2.21

Structure (SMILES): S=c1ssc2c1CCCCCCCCCC2
- logP: 5.8

Structure (SMILES): CC1(C)C2Cc3ssc(=S)c3C1C2 (centres undefined)
- logP: 3.52

Structure (SMILES): Cc1ccc(C(=O)NNC(=O)c2ccccc2)cc1
- logP [3]: 1.88

Structure (SMILES): O=S(=O)(Nc1cc(Cl)c(Cl)cc1Cl)c1c(O)c(Cl)cc(Cl)c1Cl
- logP [4]: 4.36

Structure (SMILES): CCCCC(=O)OC[C@H]1O[C@@H](n2cc(F)c(=O)[nH]c2=O)C[C@@H]1OC(=O)CCCC
- logD [5]: 2.72

Structure (SMILES): CCC1(CC)C(=O)NC(=O)N(C(C)C)C1=O
- logP [6]: 2.36

Structure (SMILES): O=S(=O)(Nc1ccccc1Cl)c1c(O)c(Cl)cc(Cl)c1Cl
- logP [4]: 3.97

Structure (SMILES): Fc1ccc(C2(Cn3cncn3)CCC2)cc1
- logP [2]: 1.93

Structure (SMILES): CC(C)OC(=O)OC[C@@H]1O[C@H](n2ccc(N)nc2=O)CS1
- logP [7]: 0.1

Structure (SMILES): CC(C)(Cn1cncn1)c1ccc(F)cc1
- logP [2]: 1.74

Structure (SMILES): O=S(=O)(Nc1ccc(O)cc1)c1cc(Cl)cc(Cl)c1Cl
- logP [4]: 4.18

Structure (SMILES): CS(=O)(=O)CCN(CCCl)c1cc(C(N)=O)c([N+](=O)[O-])cc1[N+](=O)[O-]
- logD [8]: 0.42

Structure (SMILES): CCCCCC(=O)OCC1OC(n2cc(F)c(=O)[nH]c2=O)CC1OC(=O)CCCCC (centres undefined)
- logD [5]: 4.25

Structure (SMILES): CCC1(c2ccccc2)C(=O)N=C(OC(C)C)NC1=O (centres undefined)
- logP [6]: 1.79

Structure (SMILES): CS(=O)(=O)CCN(CCI)c1cc(C(N)=O)c([N+](=O)[O-])cc1[N+](=O)[O-]
- logD [8]: 0.74

Structure (SMILES): CS(=O)(=O)CCN(CCS(C)(=O)=O)c1cc(C(N)=O)c([N+](=O)[O-])cc1[N+](=O)[O-]
- logD [8]: -0.7

Structure (SMILES): c1ccc(-c2cc3ccccc3cn2)nc1
- logD [9]: 3.05

Structure (SMILES): COc1ccc(C(=O)NNC(=O)c2ccccc2)cc1
- logP [3]: 1.6

Structure (SMILES): O=S(=O)(Nc1cc(Cl)c(Cl)cc1Cl)c1cc(Cl)cc(Cl)c1O
- logP [4]: 4.32

Structure (SMILES): CC(=O)OCC1OC(n2cc(F)c(=O)[nH]c2=O)CC1OC(C)=O (centres undefined)
- logD [5]: -0.34

Structure (SMILES): CNCCCCc1ccccc1
- logD [10]: 2.76

Structure (SMILES): O=C(NNC(=O)c1ccc([N+](=O)[O-])cc1)c1ccc([N+](=O)[O-])cc1
- logP [3]: 2.07

Structure (SMILES): OCCCCCn1nc2ccccc2n1
- logD [11]: 1.93

Structure (SMILES): Clc1c(Cl)c(Cl)c(-c2ccccc2)c(Cl)c1Cl
- logP [1]: 6.3

Structure (SMILES): S=c1ssc(Cc2ccccc2)c1-c1ccccc1
- logP: 4.29

Structure (SMILES): Clc1cc(Cl)c(-c2ccccc2)c(Cl)c1
- logP [1]: 5.47

Structure (SMILES): Cc1cccc(-c2cc3ccccc3c(N)n2)n1
- logD [9]: 3.18

Structure (SMILES): CC(N)CC1CCCCCCC1 (centres undefined)
- logD [10]: 3.7

Structure (SMILES): CCCCCOC(=O)NCCN1CCOCC1
- logP [12]: 2.8

Structure (SMILES): CCOC(=O)OC[C@@H]1O[C@H](n2ccc(N)nc2=O)CS1
- logP [7]: -0.25

Structure (SMILES): CC1CN(CCNC(=O)OCCCCCC2CCSS2)CC(C)O1 (centres undefined)
- logP [12]: 4.2

Structure (SMILES): O=C(CCCCC1CCSS1)NCCN1CCOCC1 (centres undefined)
- logP [12]: 1.8

Structure (SMILES): O=C(NCCN1CCOCC1)OCCCCCC1CCSS1 (centres undefined)
- logP [12]: 2.9

Structure (SMILES): CS(=O)(=O)c1cc([N+](=O)[O-])c(C(N)=O)cc1N(CCBr)CCBr
- logD [8]: 1.18

Structure (SMILES): CCCOC(=O)OC[C@@H]1O[C@H](n2ccc(N)nc2=O)CS1
- logP [7]: 0.22

Structure (SMILES): CCc1c(-c2ccccc2)ssc1=S
- logP: 4.31

Structure (SMILES): CCCCCCNCc1ccc(C)cc1
- logP [13]: 4.96

Structure (SMILES): OCCCCn1nnc2ccccc21
- logD [11]: 1.03

Structure (SMILES): NC1CCc2ccccc2C1 (centres undefined)
- logD [10]: 2.08

Structure (SMILES): CCCCCOC(=O)OC[C@@H]1O[C@H](n2ccc(N)nc2=O)CS1
- logP [7]: 1.2

Structure (SMILES): CCCCCCCNCc1ccc(C)cc1
- logP [13]: 5.12

Structure (SMILES): Nc1nc(-c2ccccn2)cc2ccccc12
- logD [9]: 2.74

Structure (SMILES): CCC1(CC)C(=O)N=C(OC(C)C)NC1=O
- logP [6]: 1.44

Structure (SMILES): CCNCc1ccc(C)cc1
- logP [13]: 2.38

Structure (SMILES): Clc1ccc(C2(Cn3cncn3)CCC2)cc1
- logP [2]: 2.13

Structure (SMILES): CCC1(c2ccccc2)C(=O)NC(=O)N=C1OC(C)C (centres undefined)
- logP [6]: 2.22

Structure (SMILES): OCCCCCCn1nnc2ccccc21
- logD [11]: 1.71

Structure (SMILES): CCCCCCCC(=O)OCC1OC(n2cc(F)c(=O)[nH]c2=O)CC1OC(=O)CCCCCCC (centres undefined)
- logD [5]: 6.05

Structure (SMILES): CCCCNCc1ccc(C)cc1
- logP [13]: 3.49

Structure (SMILES): OCCCCn1nc2ccccc2n1
- logD [11]: 1.57

Structure (SMILES): Cc1cccc2cc(-c3ccccn3)nc(N)c12
- logD [9]: 3.05
